ChEMBL document CHEMBL4483862, “Open-source discovery of chemical leads for next-generation chemoprotective antimalarials” (2018)
pIC50: −log10 of the molar value.

Test system: Plasmodium berghei
Assay: Luciferase/luciferin-expressing antifolate-resistant parasites were used to infect a culture of HepG2 cells that were pre-incubated with compounds. Infected hepatocytes emit light due to the luciferase reaction. Assay results are presented as the percent inhibition of light emission compared to control. […]
Format: functional
Details: sporozoite; for IC90: read-out: LUCIFERASE INFECTION ASSAY - IC90

Row | SMILES | IC90 [µM] | further results
1 | COc1nc(-c2ccccc2)cc(-c2ccc3c(c2)OCO3)c1C#N | 5.77 | pIC50 (HEPG2TOX_HILL_SLOPE 1.05, HEPG2TOX_R_SQUARED 0.733, PBLUC_HILL_SLOPE 1.42, PBLUC_R_SQUARED 0.508, read-out: LUCIFERASE INFECTION ASSAY - IC50): 5.91
2 | CC(C)(C)c1ccc(C(=O)Nc2ccc(Oc3cccnc3)nc2)cc1 | > 9.5 | pIC50 (HEPG2TOX_HILL_SLOPE 1.03, HEPG2TOX_R_SQUARED 0.91, PBLUC_HILL_SLOPE 1.13, PBLUC_R_SQUARED 0.427, read-out: LUCIFERASE INFECTION ASSAY - IC50): 5.51
3 | Oc1cc(C(F)(F)F)nc(-c2ccccn2)n1 | 5.54 | pIC50 (HEPG2TOX_HILL_SLOPE 1.09, HEPG2TOX_R_SQUARED 0.904, PBLUC_HILL_SLOPE 3.05, PBLUC_R_SQUARED 0.293, read-out: LUCIFERASE INFECTION ASSAY - IC50): 5.09
4 | CCc1nnc(S)n1/N=C/c1c(C)nn(-c2ccccc2)c1Cl | 0.704 | pIC50 (HEPG2TOX_HILL_SLOPE 1.03, HEPG2TOX_R_SQUARED 0.933, PBLUC_HILL_SLOPE 1.45, PBLUC_R_SQUARED 0.745, read-out: LUCIFERASE INFECTION ASSAY - IC50): 6.81
5 | Oc1c(Cl)cc(Cl)cc1C1Nc2cc(Cl)c(C(F)(F)F)cc2N1 (configuration not stated) | 0.127 | pIC50 (HEPG2TOX_HILL_SLOPE 1.05, HEPG2TOX_R_SQUARED 0.96, PBLUC_HILL_SLOPE 13.2, PBLUC_R_SQUARED 0.588, read-out: LUCIFERASE INFECTION ASSAY - IC50): 6.97
6 | O=C(CN1CCC(Nc2ncnc3cc(Cl)ccc23)CC1)Nc1ccccc1 | 5.83 | pIC50 (HEPG2TOX_HILL_SLOPE 1.03, HEPG2TOX_R_SQUARED 0.872, PBLUC_HILL_SLOPE 1.97, PBLUC_R_SQUARED 0.801, read-out: LUCIFERASE INFECTION ASSAY - IC50): 5.72
7 | COc1ccc2cc(CNc3ncnc4n[nH]cc34)ccc2c1 | 4.29 | pIC50 (HEPG2TOX_HILL_SLOPE 1.04, HEPG2TOX_R_SQUARED 0.97, PBLUC_HILL_SLOPE 1.64, PBLUC_R_SQUARED 0.72, read-out: LUCIFERASE INFECTION ASSAY - IC50): 5.95
8 | COc1ccc(CO/N=C/NC(=O)C(c2ccc(Cl)cc2)c2nc3ccccc3nc2C(F)(F)F)cc1 (configuration not stated) | > 6.24 | pIC50 (HEPG2TOX_HILL_SLOPE 1.06, HEPG2TOX_R_SQUARED 0.661, read-out: LUCIFERASE INFECTION ASSAY - IC50): < 5.20
9 | CCCn1nc(C(=O)NCC(c2ccc(OC)cc2)N2CCOCC2)c2ccccc2c1=O (configuration not stated) | > 10 | pIC50 (HEPG2TOX_HILL_SLOPE 1.06, HEPG2TOX_R_SQUARED 0.0699, read-out: LUCIFERASE INFECTION ASSAY - IC50): < 5.00
10 | O=C1NC2(CCOc3ccccc32)C(=O)N1Cc1cc2ccccc2nc1Cl (configuration not stated) | 1.37 | pIC50 (HEPG2TOX_HILL_SLOPE 1.06, HEPG2TOX_R_SQUARED 0.922, PBLUC_HILL_SLOPE 24.2, PBLUC_R_SQUARED 0.349, read-out: LUCIFERASE INFECTION ASSAY - IC50): 5.90
11 | Cc1ccc2c(Cl)cc(Cl)c(OC(=O)C3CC3)c2n1 | 6.06 | pIC50 (HEPG2TOX_HILL_SLOPE 1.04, HEPG2TOX_R_SQUARED 0.959, PBLUC_HILL_SLOPE 1.84, PBLUC_R_SQUARED 0.861, read-out: LUCIFERASE INFECTION ASSAY - IC50): 5.74
12 | CN(Cc1cnn(Cc2ccccc2)c1)C(=O)c1cccc(S(=O)(=O)N2CCc3ccccc32)c1 | 9.38 | pIC50 (HEPG2TOX_HILL_SLOPE 1.04, HEPG2TOX_R_SQUARED 0.954, PBLUC_HILL_SLOPE 3.29, PBLUC_R_SQUARED 0.175, read-out: LUCIFERASE INFECTION ASSAY - IC50): 5.32
13 | Clc1ccc(-c2csc3ncnc(NCc4ccc(N5CCOCC5)nc4)c23)cc1 | > 10 | pIC50 (HEPG2TOX_HILL_SLOPE 1.06, HEPG2TOX_R_SQUARED 0.974, PBLUC_HILL_SLOPE 2.24, PBLUC_R_SQUARED 0.328, read-out: LUCIFERASE INFECTION ASSAY - IC50): 5.26
14 | CN(CC(=O)Nc1ccc(-c2nc3ccccc3[nH]2)cc1)S(=O)(=O)c1ccc(Cl)s1 | > 10 | pIC50 (HEPG2TOX_HILL_SLOPE 1.06, HEPG2TOX_R_SQUARED 0.764, PBLUC_HILL_SLOPE 1.55, PBLUC_R_SQUARED 0.165, read-out: LUCIFERASE INFECTION ASSAY - IC50): < 5.00
15 | CCc1cc(-c2n[nH]cc2-c2ccc3c(c2)OCCO3)c(O)cc1OC | 1.59 | pIC50 (HEPG2TOX_HILL_SLOPE 1.05, HEPG2TOX_R_SQUARED 0.928, PBLUC_HILL_SLOPE 1.82, PBLUC_R_SQUARED 0.694, read-out: LUCIFERASE INFECTION ASSAY - IC50): 6.32
16 | Nn1c(SCC(=O)c2c[nH]c3ccccc23)nnc1C(F)(F)F | 8.78 | pIC50 (HEPG2TOX_HILL_SLOPE 1.03, HEPG2TOX_R_SQUARED 0.976, PBLUC_HILL_SLOPE 0.599, PBLUC_R_SQUARED 0.712, read-out: LUCIFERASE INFECTION ASSAY - IC50): 6.65

Row | SMILES | IC90 [µM] | further results
17 | O=C1NC2(CCc3ccccc32)C(=O)N1Cc1cc2ccccc2nc1Cl (configuration not stated) | > 10 | pIC50 (HEPG2TOX_HILL_SLOPE 1.06, HEPG2TOX_R_SQUARED 0.864, read-out: LUCIFERASE INFECTION ASSAY - IC50): < 5.00
18 | OCc1cccc(-c2ccc3ncc(-c4cccs4)n3n2)c1 | 4.05 | pIC50 (HEPG2TOX_HILL_SLOPE 1.03, HEPG2TOX_R_SQUARED 0.934, PBLUC_HILL_SLOPE 12.1, PBLUC_R_SQUARED 0.638, read-out: LUCIFERASE INFECTION ASSAY - IC50): 5.47
19 | COc1ccc(-c2cnc3ccc(Cc4ccccc4)nn23)cc1OC | 3.83 | pIC50 (HEPG2TOX_HILL_SLOPE 1.09, HEPG2TOX_R_SQUARED 0.956, PBLUC_HILL_SLOPE 11.4, PBLUC_R_SQUARED 0.574, read-out: LUCIFERASE INFECTION ASSAY - IC50): 5.50
20 | CNC(=O)c1ccc(CN(C2CC2)S(=O)(=O)c2cc(C)ccc2C)cc1 | 5.44 | pIC50 (HEPG2TOX_HILL_SLOPE 1.06, HEPG2TOX_R_SQUARED 0.677, PBLUC_HILL_SLOPE 1.71, PBLUC_R_SQUARED 0.782, read-out: LUCIFERASE INFECTION ASSAY - IC50): 5.82
21 | N#C/C(=N\Nc1ccc(Cl)cc1)S(=O)(=O)c1ccc(Cl)cc1 | 3.93 | pIC50 (HEPG2TOX_HILL_SLOPE 1.06, HEPG2TOX_R_SQUARED 0.975, PBLUC_HILL_SLOPE 5.18, PBLUC_R_SQUARED 0.893, read-out: LUCIFERASE INFECTION ASSAY - IC50): 5.59
22 | CC(C)(C)c1ccc(C(O)c2nc(C(=O)NC3CC3)cs2)cc1 (configuration not stated) | 1.29 | pIC50 (HEPG2TOX_HILL_SLOPE 1.09, HEPG2TOX_R_SQUARED 0.894, PBLUC_HILL_SLOPE 10.5, PBLUC_R_SQUARED 0.569, read-out: LUCIFERASE INFECTION ASSAY - IC50): 5.98
23 | Cn1ccc2cc(-c3cn4c(-c5cccc(Cl)c5)cnc4cn3)ccc21 | 2.86 | pIC50 (HEPG2TOX_HILL_SLOPE 1.09, HEPG2TOX_R_SQUARED 0.945, PBLUC_HILL_SLOPE 1.73, PBLUC_R_SQUARED 0.845, read-out: LUCIFERASE INFECTION ASSAY - IC50): 6.09
24 | Cc1cc(NNC(=O)Nc2ccc(Cl)cc2)nc2c1c(C)nn2C | > 9.57 | pIC50 (HEPG2TOX_HILL_SLOPE 1.06, HEPG2TOX_R_SQUARED 0.939, PBLUC_HILL_SLOPE 2, PBLUC_R_SQUARED 0.223, read-out: LUCIFERASE INFECTION ASSAY - IC50): 5.39
25 | CC(C)CCN1C(=O)N(C(C)C)C(=O)C12CCN(Cc1c[nH]c3ccccc13)CC2 | > 8.04 | pIC50 (HEPG2TOX_HILL_SLOPE 1.06, HEPG2TOX_R_SQUARED 0.491, PBLUC_HILL_SLOPE 3.87, PBLUC_R_SQUARED 0.243, read-out: LUCIFERASE INFECTION ASSAY - IC50): < 5.09
26 | COc1ccc(C(=O)/C(C#N)=N/Nc2cccc(Cl)c2Cl)cc1 | 9.32 | pIC50 (HEPG2TOX_HILL_SLOPE 1.05, HEPG2TOX_R_SQUARED 0.901, PBLUC_HILL_SLOPE 1.18, PBLUC_R_SQUARED 0.493, read-out: LUCIFERASE INFECTION ASSAY - IC50): 5.84
27 | Nc1nccnc1C(=O)Nc1nc2cc3c(cc2s1)OCCO3 | 0.434 | pIC50 (HEPG2TOX_HILL_SLOPE 1.04, HEPG2TOX_R_SQUARED 0.527, PBLUC_HILL_SLOPE 12.4, 0.362, PBLUC_R_SQUARED 0.835, 0.759, read-out: LUCIFERASE INFECTION ASSAY - IC50): 6.71
28 | Clc1ccc2nc(-c3cnn(-c4ccccc4)c3)[nH]c2c1 | 7.38 | pIC50 (HEPG2TOX_HILL_SLOPE 1.09, HEPG2TOX_R_SQUARED 0.847, PBLUC_HILL_SLOPE 23.0, 2.49, PBLUC_R_SQUARED 0.431, 0.566, read-out: LUCIFERASE INFECTION ASSAY - IC50): 5.27
29 | COc1ccc(C(=O)Nc2cccc(/C=C3\S/C(=N\C4CCCC4)NC3=O)c2)cc1 | > 10 | pIC50 (HEPG2TOX_HILL_SLOPE 1.03, HEPG2TOX_R_SQUARED 0.894, PBLUC_HILL_SLOPE 3.32, PBLUC_R_SQUARED 0.257, read-out: LUCIFERASE INFECTION ASSAY - IC50): 5.22
30 | COc1ccc2c(c1)[nH]c1c(N(C)CCc3ccc(OC)c(OC)c3)ncnc12 | > 8.41 | pIC50 (HEPG2TOX_HILL_SLOPE 1.05, HEPG2TOX_R_SQUARED 0.856, PBLUC_HILL_SLOPE 1.55, PBLUC_R_SQUARED 0.53, read-out: LUCIFERASE INFECTION ASSAY - IC50): 5.35
31 | Cc1cccc(-[n+]2c(C)cc(C=C3Sc4ccc5ccccc5c4N3C)cc2C)c1 | 0.685 | pIC50 (HEPG2TOX_HILL_SLOPE 1.04, HEPG2TOX_R_SQUARED 0.832, PBLUC_HILL_SLOPE 4.15, PBLUC_R_SQUARED 0.768, read-out: LUCIFERASE INFECTION ASSAY - IC50): 6.39
